According to article PMC4961418, “A Selective Irreversible Inhibitor of Furin Does Not Prevent Pseudomonas Aeruginosa Exotoxin A-Induced Airway Epithelial Cytotoxicity” (PLoS ONE, 2016):
Side chains are listed from the residue outwards. Peptide text beside a SMILES is read from it. * marks the point of attachment. Biotin = O=C1N[C@H]2[C@H](CS[C@H]2CCCCC(=O)*)N1; X1 = N=C(N)NCCCC(N*)P(=O)(Oc1ccccc1)Oc1ccccc1; Palmitoyl = CCCCCCCCCCCCCCCC(=O)*; Ahx = NCCCCCC(=O)O

What was measured:
proteinase 3 = target: T1, proteinase 3 (Homo sapiens, UniProt P24158); assay: Fluorogenic protease activity assay, proteinase 3; format: biochemical; conditions: 10 μM inhibitor, MeO-Suc-Ala-Ala-Pro-Val-NH2Mec 50 μM, N = 3
T1 construct: purchased Elastin Products, Missouri
T1 sequence (P24158 28-256): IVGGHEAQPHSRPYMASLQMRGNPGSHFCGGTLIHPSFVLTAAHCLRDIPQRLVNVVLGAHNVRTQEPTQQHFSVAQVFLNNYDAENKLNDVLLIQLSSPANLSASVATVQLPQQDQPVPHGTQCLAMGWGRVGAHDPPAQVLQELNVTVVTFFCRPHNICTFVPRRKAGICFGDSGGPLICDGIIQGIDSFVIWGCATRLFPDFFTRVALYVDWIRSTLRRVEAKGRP
Text: (§1) Recombinant human enzymes were sourced as follows: furin and matriptase (R&D Systems); prostasin (Sino Biological); trypsin and chymotrypsin (Sigma-Aldrich); factor Xa and neutrophil elastase (Merck Millipore) and proteinase-3 and cathepsin G (Elastin Products, Missouri). Fluorogenic substrates were sourced as follows: p-Glu-Arg-Thr-Lys-Arg-NH2Mec and Boc-Gln-Ala-Arg-NH2Mec (R&D Systems); Boc-Ile-Glu-Gly-Arg-NH2Mec (Bachem); Z-Gly-Gly-Arg-NH2Mec, MeOSuc-Ala-Ala-Pro-Val-NH2Mec and Suc-Ala-Ala-Pro-Phe-NH2Mec (Sigma-Aldrich). All chemicals and reagents for the synthesis of QUB-F1 were supplied by Sigma-Aldrich unless otherwise indicated. Fmoc-Lys(Boc)-SASRIN resin was sourced from Bachem. Fmoc-protected amino acids and HCTU were supplied by Merck Millipore.
(§2) Recombinant protease activities were assessed using the cognate fluorogenic substrates (final concentration 50 μM) as follows: trypsin (Z-Gly-Gly-Arg-NH2Mec), prostasin and matriptase (Boc-Gln-Ala-Arg-NH2Mec), factor Xa (Boc-Ile-Glu-Gly-Arg-NH2Mec), neutrophil elastase and proteinase 3 (MeO-Suc-Ala-Ala-Pro-Val-NH2Mec), chymotrypsin and cathepsin G (Suc-Ala-Ala-Pro-Phe-NH2Mec). The rate of substrate hydrolysis in the presence or absence of furin inhibitors was assessed by continuous recording at λex 360 nm, λem 480 nm, over a period of 60 minutes using a FLUOstar Optima microplate reader (BMG Labtech). […]

CuFi-1 epithelial cells = assay: PEA-induced epithelial cell toxicity (LDH cytotoxicity assay); format: cell-based, human; conditions: 2 μg/ml PEA, 24 h, CF airway epithelial cells
Method: The CuFi-1 cell line was derived from human airway epithelium of a CF patient (F508del/F508del) transformed with a reverse transcriptase component of telomerase, hTERT and human papillomavirus type 16 E6 and E7 genes. Cells were grown as submerged cultures using bronchial epithelial growth medium (BEBM including a supplement pack) containing: epidermal growth factor, hydrocortisone, bovine pituitary extract, transferrin, bovine insulin, triiodothyronine, epinephrine, retinoic acid, penicillin-streptomycin (0.025 μg/ml), gentamycin ([…]) and amphotericin (25 μg/ml).
Cytotoxicity was determined using the LDH-Cytotoxicity Colorimetric Assay Kit II (Bio Vision) in accordance with the instructions provided by the manufacturer. Addition of the supplied cell lysis solution to control wells was used to determine 100% cytotoxicity in each set of experiments.
Fig 4 Effect of furin inhibitors on PEA-induced epithelial cell toxicity. (A) Cell toxicity (%) induced by 2 μg/ml PEA (24 h) was measured in the presence or absence of furin I or QUB-F1. Data represent mean ± s.e.m. *P<0.05. (B) Airway epithelial cell surface furin-like activity was assayed upon application of the furin fluorogenic substrate (pERTKR) to cell cultures in the presence or absence of 10 μM furin I or QUB-F1.

cathepsin G = target: T2, cathepsin G (Homo sapiens, UniProt P08311); assay: Fluorogenic protease activity assay, cathepsin G; format: biochemical; conditions: 10 μM inhibitor, Suc-Ala-Ala-Pro-Phe-NH2Mec 50 μM, N = 3
T2 construct: purchased Elastin Products, Missouri
T2 sequence (P08311 21-255): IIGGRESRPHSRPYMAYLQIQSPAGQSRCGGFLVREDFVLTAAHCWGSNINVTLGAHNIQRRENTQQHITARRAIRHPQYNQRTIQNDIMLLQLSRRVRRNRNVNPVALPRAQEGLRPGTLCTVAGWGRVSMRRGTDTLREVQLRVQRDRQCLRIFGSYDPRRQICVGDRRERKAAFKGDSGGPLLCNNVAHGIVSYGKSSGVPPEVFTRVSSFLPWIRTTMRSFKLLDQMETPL
Text: as §1, §2

CCCCCCCCCCCCCCCC(=O)N[C@@H](CCCCNC(=O)CCCCCNC(=O)CCCC[C@@H]1SC[C@@H]2NC(=O)N[C@@H]21)C(=O)N[C@@H](CCCNC(=N)N)C(=O)N[C@H](C(=O)N[C@@H](CCCCN)C(=O)NC(CCCNC(=N)N)P(=O)(Oc1ccccc1)Oc1ccccc1)C(C)C (stereo partly drawn) [QUB-F1, N^α-Pal-N^ω-(Biotinyl-Ahx)-Lys-RVKR^P(OPh)2] (Palmitoyl-K([Ahx-Biotin])RVK-X1)
inhibition of proteinase 3 (proteinase 3): Neither compound was found to inhibit
effect on PEA-induced epithelial cell toxicity (CuFi-1 epithelial cells): offered no protection
inhibition of cathepsin G (cathepsin G): Neither compound was found to inhibit
